A word on the Ki: it is the dissociation constant of the complex between target and ligand, obtained from inhibition or displacement. Read a high Ki as weaker binding.

The nature of this test: Binding affinity at Sigma receptor type 1, displacement of [3H](+)-pentazocine from guinea pig brain membranes. A general note: In a radioligand displacement assay an active substance lowers the binding of a labelled ligand.
Compound `C[C@@H]1[C@@H]2Cc3ccc(O)cc3[C@@]1(C)CCN2Cc1ccc(C#N)cc1` [4-((2S,6S,11S)-8-Hydroxy-6,11-dimethyl-1,2,5,6-tetrahydro-4H-2,6-methano-benzo[d]azocin-3-ylmethyl)-benzonitrile] came in with a Ki of 0.00153 µM. As for `C[C@@H]1[C@@H]2Cc3ccc(O)cc3[C@@]1(C)CCN2Cc1ccccc1F` [(2S,6S,11S)-3-(2-Fluoro-benzyl)-6,11-dimethyl-1,2,3,4,5,6-hexahydro-2,6-methano-benzo[d]azocin-8-ol], affinity was put at a Ki of 0.00145 µM. The result for `C[C@@H]1[C@@H]2Cc3ccc(O)cc3[C@@]1(C)CCN2Cc1ccccc1I` [(2S,6S,11S)-3-(2-Iodo-benzyl)-6,11-dimethyl-1,2,3,4,5,6-hexahydro-2,6-methano-benzo[d]azocin-8-ol] reads 0.93 µM; that for `C[C@@H]1[C@@H]2Cc3ccc(O)cc3[C@@]1(C)CCN2Cc1cccc(I)c1` [(2S,6S,11S)-3-(3-Iodo-benzyl)-6,11-dimethyl-1,2,3,4,5,6-hexahydro-2,6-methano-benzo[d]azocin-8-ol], 0.0272 µM; that for `C[C@@H]1[C@@H]2Cc3ccc(O)cc3[C@@]1(C)CCN2Cc1ccc(N)cc1` [(2S,6S,11S)-3-(4-Amino-benzyl)-6,11-dimethyl-1,2,3,4,5,6-hexahydro-2,6-methano-benzo[d]azocin-8-ol], 0.0168 µM. In the case of `C[C@@H]1[C@@H]2Cc3ccc(O)cc3[C@@]1(C)CCN2Cc1ccc(Br)cc1` [(2S,6S,11S)-3-(4-Bromo-benzyl)-6,11-dimethyl-1,2,3,4,5,6-hexahydro-2,6-methano-benzo[d]azocin-8-ol], the inhibitory constant (Ki) worked out at 0.00311 µM. The result for `C[C@@H]1[C@@H]2Cc3ccc(O)cc3[C@@]1(C)CCN2Cc1ccc(Cl)cc1` [(2S,6S,11S)-3-(4-Chloro-benzyl)-6,11-dimethyl-1,2,3,4,5,6-hexahydro-2,6-methano-benzo[d]azocin-8-ol] reads 0.00237 µM; that for `C[C@@H]1[C@@H]2Cc3ccc(O)cc3[C@@]1(C)CCN2Cc1ccc(N(C)C)cc1` [(2S,6S,11S)-3-(4-Dimethylamino-benzyl)-6,11-dimethyl-1,2,3,4,5,6-hexahydro-2,6-methano-benzo[d]azocin-8-ol], 0.102 µM. The result for `C[C@@H]1[C@@H]2Cc3ccc(O)cc3[C@@]1(C)CCN2Cc1ccc(F)cc1` [(2S,6S,11S)-3-(4-Fluoro-benzyl)-6,11-dimethyl-1,2,3,4,5,6-hexahydro-2,6-methano-benzo[d]azocin-8-ol] reads 0.00097 µM; that for `C[C@@H]1[C@@H]2Cc3ccc(O)cc3[C@@]1(C)CCN2Cc1ccc(I)c([N+](=O)[O-])c1` [(2S,6S,11S)-3-(4-Iodo-3-nitro-benzyl)-6,11-dimethyl-1,2,3,4,5,6-hexahydro-2,6-methano-benzo[d]azocin-8-ol], 0.386 µM. `C[C@@H]1[C@@H]2Cc3ccc(O)cc3[C@@]1(C)CCN2Cc1ccc(I)cc1` [(2S,6S,11S)-3-(4-Iodo-benzyl)-6,11-dimethyl-1,2,3,4,5,6-hexahydro-2,6-methano-benzo[d]azocin-8-ol] showed a Ki of 0.0165 µM. The result for `COc1ccc(CN2CC[C@]3(C)c4cc(O)ccc4C[C@H]2[C@H]3C)cc1` [(2S,6S,11S)-3-(4-Methoxy-benzyl)-6,11-dimethyl-1,2,3,4,5,6-hexahydro-2,6-methano-benzo[d]azocin-8-ol] reads 0.00289 µM. The value for `C[C@@H]1[C@@H]2Cc3ccc(O)cc3[C@@]1(C)CCN2Cc1ccc(C(C)(C)C)cc1` [(2S,6S,11S)-3-(4-tert-Butyl-benzyl)-6,11-dimethyl-1,2,3,4,5,6-hexahydro-2,6-methano-benzo[d]azocin-8-ol] was 1.07 µM; that for `Cc1ccccc1CN1CC[C@]2(C)c3cc(O)ccc3C[C@H]1[C@H]2C` [(2S,6S,11S)-6,11-Dimethyl-3-(2-methyl-benzyl)-1,2,3,4,5,6-hexahydro-2,6-methano-benzo[d]azocin-8-ol] was 0.0128 µM. The value for `Cc1ccc(CN2CC[C@]3(C)c4cc(O)ccc4C[C@H]2[C@H]3C)cc1` [(2S,6S,11S)-6,11-Dimethyl-3-(4-methyl-benzyl)-1,2,3,4,5,6-hexahydro-2,6-methano-benzo[d]azocin-8-ol] was 0.00208 µM.

Compound `C[C@@H]1[C@@H]2Cc3ccc(O)cc3[C@@]1(C)CCN2Cc1ccc([N+](=O)[O-])cc1` [(2S,6S,11S)-6,11-Dimethyl-3-(4-nitro-benzyl)-1,2,3,4,5,6-hexahydro-2,6-methano-benzo[d]azocin-8-ol] came in with a Ki of 0.00219 µM.

The compound `C[C@@H]1[C@@H]2Cc3ccc(O)cc3[C@@]1(C)CCN2Cc1ccc(C(F)(F)F)cc1` [(2S,6S,11S)-6,11-Dimethyl-3-(4-trifluoromethyl-benzyl)-1,2,3,4,5,6-hexahydro-2,6-methano-benzo[d]azocin-8-ol] registered a Ki of 0.0205 µM.

`CC(=O)Nc1ccc(CN2CC[C@]3(C)c4cc(O)ccc4C[C@H]2[C@H]3C)cc1` [N-[4-((2S,6S,11S)-8-Hydroxy-6,11-dimethyl-1,2,5,6-tetrahydro-4H-2,6-methano-benzo[d]azocin-3-ylmethyl)-phenyl]-acetamide] had a Ki of 0.047 µM.

The record behind these values is BindingDB's records for doi:10.1021/jm00003a019 (Research Triangle Institute, 1995).
